Where two headings read alike, the source gives them in different places.
Columns and labels:
MIA PaCa-2 cell line = test: 3D cell growth assay (CellTiter-Glo), MIA PaCa-2; format: cell-based; details: Homo sapiens, MIA PaCa-2, 144 h, 6 days, read-out: 3D growth inhibition GI50
Procedure: MIA PaCa-2 (ATCC), NCI-H358 (ATCC), NCI-H23 (ATCC), SW837 and A549 (ATCC) cells were plated in round bottom 96-well spheroid microplates (Corning, 4520) at 3000 cells/well in 90 ul of RPMI growth medium containing 10% FBS and 1% Penicillin Streptomycin. Cells were incubated at 37° C. overnight. The following day, the test compound was administered to the cells by using 10× compound stock solution prepared in growth medium at various concentrations. After administration of the compound, cells were then incubated at 37° C. for 6 days. Before CellTiter-Glo assay, the plates were equilibrated at room temperature for approximately 10 minutes. 100 ul of CellTiter-Glo® Reagent (Promega, G7573) was added to each well. The plates were then incubated at room temperature for 10 minutes and luminescence was recorded by EnSpire plate reader (PerkinElmer). Table 6 illustrates growth inhibition (G150) by exemplary compounds 1-10 of the present disclosure in a MIA PaCa-2 cell line 6 days after administration in 3D cell culture. A: >0.1 nM and <1 nM; B: >=1 nM and <10 nM; C: >=10 nM and <100 nM; D: >100 nM.

KRAS-G12C mutant [1] = molecular target: T1, KRAS-G12C mutant (Homo sapiens, UniProt P01116, G12C); test: TR-FRET assay of SOS1-assisted KRAS GDP/GTP exchange; format: biochemical
Procedure: GDP form of 6*His tagged KRAS-G12C was diluted to 40 nM and incubated with 8 nM LanthaScreen™ Elite Terbium-anti-HIS Antibody (Thermo, catalog number PV5863) in reaction buffer containing 20 mM Tris, pH 7.5, 100 mM NaCl, 1 mM DTT, 0.1% Tween20, 0.05% BSA, 2% DMSO, 1 mM MgCl2. After 1 hour-incubation at 4° C., proteins were placed in 384 well plate (PerkinElmer, PROXIPLATE-384 PLUS). Then compounds with different concentrations were added to the proteins. BODIPY labeled GTP (Thermo, catalog number G12411) and SOS-1 (or reaction buffer as control) were then added to reactions at 200 nM and 1 μM to trigger the exchange of GDP to BODIPY-GTP. TR-FRET emission signals were determined at 520 nm and 620 nm on a Envision® Multilabel Plate Reader (PerkinElmer) using a 337 nm laser as light source. All data were analyzed and plotted using Graph Pad Prism software (version 8.0.1). Raw TR-FRET data were converted to percentage of inhibition (relative to DMSO) using the following equations: […]
b) For a given test compound concentration X:
Signal (X)=Emission ratio (SOS-1 & GTP)—Emission ratio (buffer & GTP)
c) Percentage of inhibition at concentration X=[1−Signal(X)/Signal (DMSO)]*100%
The […] values were determined by nonlinear regression of plots of [inhibitor] vs. percentage of inhibition with variable slope. Table 4 summarizes inhibition of SOS1-assisted GDP/GTP exchanging activity of KRAS-G12C mutant with exemplary compounds of the present disclosure.

KRAS-G12C mutant [2] = molecular target: T1, KRAS-G12C mutant; test: Gel shift assay (SDS-PAGE) for covalent modification of KRAS G12C; format: binding; details: 0.5 μM compound, 1 μM GDP-bound KRAS G12C, 25° C., 5 minutes, shift indicative of covalent cysteine conjugation
Procedure: 0.5 μM compounds were incubated with 1 μM GDP-bound untagged KRAS (G12C or wild type) proteins at 25° C. for 5 minutes in 40 μl reaction buffer (50 mM Tris, pH 7.5, 100 mM NaCl, 1 mM MgCl2, 1 mM DTT). The reactions were quenched with 10 μI SDS-PAGE sample loading buffer (250 mM Tris-HCl, pH 6.8, 10% SDS, 0.5% bromophenol blue, 50% glycerol and 50 mM DTT) and then analyzed via SDS-PAGE using 4%-20% gradient polyacrylamide gel followed by Coomassie blue stain.
FIG. 1 illustrates mobility change of KRAS-G12C mutant or wild type proteins on SDS-PAGE after 5 minutes of coincubation at 25° C. with exemplary compounds of the present disclosure, indicative of covalent cysteine conjugation.
Table 3 summarizes molecular weight shift of KRAS-G12C mutant on SDS-PAGE after 5 mins of coincubation at 25° C. with exemplary compounds of the present disclosure, indicative of covalent cysteine conjugation.

[3] = test system: phospho-ERK1/2 (Thr202/Tyr204) in MIA PaCa-2 cell line; test: pERK and ERK Western blot analysis, MIA PaCa-2; format: cell-based; details: Homo sapiens
Procedure: MIA PaCa-2 (ATCC), NCI-H358 (ATCC), NCI-H23 (ATCC), SW837 and A549 (ATCC) cells were plated in 24-well plates at 2×10^5cells/well in RPMI growth medium containing 10% FBS and 1× Penicillin Streptomycin. They were then incubated at 37° C. overnight. The following day, the test compound was administered to the cells by using 1000× compound stock solution prepared in DMSO at various concentrations. After administration of the compound, the cells were then incubated at 37° C. for 4 hours. Upon completion, the cells were washed with PBS and protein was collected in Laemmli sample buffer (1×; VWR International). Proteins in cell lysate were separated by SDS-PAGE and transferred to Odyssey nitrocellulose membranes (Licor) with iblot® dry blotting transfer system (ThermoFisher). Nonspecific binding was blocked by incubating membranes with Intercept Blocking Buffer (Licor) for 1 hour at room temperature with gentle shaking. The membranes were then incubated overnight at 4° C. with primary antibodies rabbit anti-phospho p44/42 MAPK (Erk1/2) (1:2,000, Cell Signaling, 4370) and mouse anti-p44/42 MAPK (Erk1/2) (1:1,000, Cell Signaling, 4696) diluted in Intercept Blocking Buffer containing 0.1% Tween 20. After washing 3 times with TBS-T, the membranes were incubated with IRDye® 800CW goat anti-rabbit IgG (1:20,000, Licor) or IRDye® 680CW goat anti-mouse IgG (1:20,000, Licor) for 1 hour. After TBS-T washes, membranes were rinsed in TBS and scanned on Odyssey® CLx Imaging System (Licor). The bands were quantified using Image Studio™ Software (Licor).

[4] = MIA PaCa-2 cell line, 3D cell culture
[5] = MIA PaCa-2 cell line, 4 hours after incubation, read-out: 2D pERK IC50

| Compound | GI50 (MIA PaCa-2 cell line; [4]) [nM] | IC50 (KRAS-G12C mutant [1]) [nM] | KRAS-G12C molecular weight shift (KRAS-G12C mutant [2]) | IC50 [3, 5] [nM] | GI50 (MIA PaCa-2 cell line; MiaPaCa2, KRAS G12C, 3D) [nM] | IC50 ([3]; MIA PaCa-2, MiaPaCa2, KRAS G12C, 4 hours, read-out: pERK IC50) [nM] |
| --- | --- | --- | --- | --- | --- | --- |
| C=C(F)C(=O)N1CCN(c2nc(OCC3(CN4CCCC4)CC3)nc3c2COC(c2cccc4cccc(Cl)c24)C3)C[C@@H]1CC#N (mixture of isomers) [Compound 71, 2-((2S)-4-(7-(8-chloronaphthalen-1-yl)-2-((1-(pyrrolidin-1-ylmethyl)cyclopropyl)methoxy)-7,8-dihydro-5H-pyrano[4,3-d]pyrimidin-4-yl)-1-(2-fluoroacryloyl)piperazin-2-yl)acetonitrile] | 10 to 100 | 209 | Yes | 10 to 100 | – | – |
| C=C(F)C(=O)N1CCN(c2nc(OC[C@@]34CCCN3C[C@H](F)C4)nc3c2CO[C@@H](c2cccc4cccc(Cl)c24)C3)C[C@@H]1CC#N (single isomer, unassigned) [Compound 63] | 10 to 100 | 6930 | No | > 100 | – | – |
| C=C(F)C(=O)N1CCN(c2nc(OCC3(CN4CCCC4)CC3)nc3c2CO[C@@H](c2cccc4cccc(Cl)c24)C3)C[C@@H]1CC#N (single isomer, unassigned) [Compound 72] | > 100 | 11600 | No | > 100 | – | – |
| C=C(F)C(=O)N1CCN(c2nc(OCC3(CN4CCCC4)CC3)nc3c2CO[C@H](c2cccc4cccc(Cl)c24)C3)C[C@@H]1CC#N (single isomer, unassigned) [Compound 73] | 10 to 100 | 112 | Yes | 10 to 100 | – | – |
| C=CC(=O)N1CCN(c2nc(OC[C@@H]3C[C@@H](F)CN3C)nc3c2COC(c2cccc4ccccc24)C3)C[C@@H]1CC#N (stereo partly drawn) [Compound 8, 2-((2S)-1-acryloyl-4-(2-(((2S,4R)-4-fluoro-1-methylpyrrolidin-2-yl)methoxy)-7-(naphthalen-1-yl)-7,8-dihydro-5H-pyrano[4,3-d]pyrimidin-4-yl)piperazin-2-yl)acetonitrile] | 10 to 100 | 238 | – | 1 to 10 | – | – |
| C=CC(=O)N1CCN(c2nc(OC[C@@H]3C[C@H](F)CN3C)nc3c2CO[C@H](c2cccc4ccccc24)C3)C[C@@H]1CC#N [Compound 9, 2-((S)-1-acryloyl-4-((S)-2-(((2S,4S)-4-fluoro-1-methylpyrrolidin-2-yl)methoxy)-7-(naphthalen-1-yl)-7,8-dihydro-5H-pyrano[4,3-d]pyrimidin-4-yl)piperazin-2-yl)acetonitrile] | 10 to 100 | 1 | – | 10 to 100 | – | – |
| C=C(F)C(=O)N1CCN(c2nc(OC[C@@H]3CCCN3C)nc3c2CO[C@H](c2cccc4cccc(Cl)c24)C3)C[C@@H]1CC#N [Compound 18, 2-((S)-4-((S)-7-(8-chloronaphthalen-1-yl)-2-(((S)-1-methylpyrrolidin-2-yl)methoxy)-7,8-dihydro-5H-pyrano[4,3-d]pyrimidin-4-yl)-1-(2-fluoroacryloyl)piperazin-2-yl)acetonitrile] | 1 to 10 | 78 | Yes | 10 to 100 | 7.3 | 21.9 |
| C=C(F)C(=O)N1CCN(c2nc(OCC34CCCN3CCC4)nc3c2COC(c2cccc4cccc(Cl)c24)C3)C[C@@H]1CC#N (stereo partly drawn) [Compound 53, 2-((2S)-4-(7-(8-chloronaphthalen-1-yl)-2-((tetrahydro-1H-pyrrolizin-7a(5H)-yl)methoxy)-7,8-dihydro-5H-pyrano[4,3-d]pyrimidin-4-yl)-1-(2-fluoroacryloyl)piperazin-2-yl)acetonitrile] | 1 to 10 | 45 | Yes | 1 to 10 | – | – |
| C=C(F)C(=O)N1CCN(c2nc(OCC34CCCN3CCC4)nc3c2COC(c2cccc4cccc(C)c24)C3)C[C@@H]1CC#N (stereo partly drawn) [Compound 56, 2-((2S)-1-(2-fluoroacryloyl)-4-(7-(8-methylnaphthalen-1-yl)-2-((tetrahydro-1H-pyrrolizin-7a(5H)-yl)methoxy)-7,8-dihydro-5H-pyrano[4,3-d]pyrimidin-4-yl)piperazin-2-yl)acetonitrile] | 1 to 10 | 70 | Yes | 10 to 100 | – | – |

Next, values leading:

| GI50 (MIA PaCa-2 cell line; [4]) [nM] | IC50 (KRAS-G12C mutant [1]) [nM] | KRAS-G12C molecular weight shift (KRAS-G12C mutant [2]) | IC50 [3, 5] [nM] | GI50 (MIA PaCa-2 cell line; MiaPaCa2, KRAS G12C, 3D) [nM] | IC50 ([3]; MIA PaCa-2, MiaPaCa2, KRAS G12C, 4 hours, read-out: pERK IC50) [nM] | Compound |
| --- | --- | --- | --- | --- | --- | --- |
| 1 to 10 | 19 | Yes | 10 to 100 | – | – | C=C(F)C(=O)N1CCN(c2nc(OCC34CCCN3CCC4)nc3c2CO[C@H](c2cccc4cccc(C)c24)C3)C[C@@H]1CC#N (single isomer, unassigned) [Compound 58] |
| 1 to 10 | 77 | – | 10 to 100 | – | – | C=CC(=O)N1CCN(c2nc(OC[C@@H]3CCCN3C)nc3c2COC(c2cccc4ccccc24)C3)C[C@@H]1CC#N (stereo partly drawn) [Compound 2, 2-((2S)-1-acryloyl-4-(2-(((S)-1-methylpyrrolidin-2-yl)methoxy)-7-(naphthalen-1-yl)-7,8-dihydro-5H-pyrano[4,3-d]pyrimidin-4-yl)piperazin-2-yl)acetonitrile] |
| 1 to 10 | 49 | – | 1 to 10 | – | – | C=CC(=O)N1CCN(c2nc(OC[C@@H]3CCCN3C)nc3c2CO[C@H](c2cccc4ccccc24)C3)C[C@@H]1CC#N [Compound 4, 2-((S)-1-acryloyl-4-((S)-2-(((S)-1-methylpyrrolidin-2-yl)methoxy)-7-(naphthalen-1-yl)-7,8-dihydro-5H-pyrano[4,3-d]pyrimidin-4-yl)piperazin-2-yl)acetonitrile] |
| 1 to 10 | 19 | – | 0.1 to 1 | – | – | C=CC(=O)N1CCN(c2nc(OC[C@@H]3CCCN3C)nc3c2CO[C@H](c2cccc4cccc(Cl)c24)C3)C[C@@H]1CC#N [Compound 7, 2-((S)-1-acryloyl-4-((S)-7-(8-chloronaphthalen-1-yl)-2-(((S)-1-methylpyrrolidin-2-yl)methoxy)-7,8-dihydro-5H-pyrano[4,3-d]pyrimidin-4-yl)piperazin-2-yl)acetonitrile] |

From patent US20220112204A1, “SUBSTITUTED DIHYDROPYRANOPYRIMIDINE COMPOUNDS AS KRAS INHIBITORS” (ACCUTAR BIOTECHNOLOGY INC., priority 2020, published 2022)
